Results: ChEMBL document CHEMBL1127281, “Synthesis and anti-herpes activity of some a-ring functionalized dehydroabietane derivatives” (Bioorg Med Chem Lett, 1994)
Converted amounts (≈) assume the structure as drawn.

System: not listed separately
Test: Concentration required for 50% inhibition of herpes simplex virus 2(HSV-2) using standard plaque reduction assay in vero cells
Type: functional, cell-based
Conditions: Chlorocebus sabaeus

Compound	IC50
CC(C)c1ccc2c(c1)CC[C@H]1C(=O)[C@@H](O)CC[C@]21C	8 µg/mL (≈ 29.4 µM)
CC(C)c1ccc2c(c1)CC[C@H]1[C@](C)(Sc3ccccn3)CCC[C@]21C	20 µg/mL (≈ 54.7 µM)
C=C1[C@@H](O)CC[C@]2(C)c3ccc(C(C)C)cc3CC[C@@H]12	3 µg/mL (≈ 11.1 µM)
C[C@@]1(CO)[C@H](O)CC[C@@]2(C)[C@H]1CCC1C[C@@H]3C[C@@]12CC[C@]3(O)CO (stereo partly drawn)	0.2 µg/mL (≈ 0.591 µM)
C=C1CCC[C@]2(C)c3ccc(C(C)C)cc3CC[C@@H]12	10 µg/mL (≈ 39.3 µM)
CC(C)c1ccc2c(c1)CC[C@H]1[C@@H](CO)[C@@H](O)CC[C@]21C	20 µg/mL (≈ 69.3 µM)
CC(C)c1ccc2c(c1)CC[C@H]1[C@]3(CCC[C@]21C)CO3	20 µg/mL (≈ 74 µM)
CC(C)c1ccc2c(c1)CC[C@H]1[C@@H](CO)CCC[C@]21C	9 µg/mL (≈ 33 µM)
CC(C)c1ccc2c(c1)CC[C@H]1C(=O)CCC[C@]21C	14 µg/mL (≈ 54.6 µM)
CC(C)c1ccc2c(c1)CC[C@H]1[C@@](O)(CO)[C@@H](O)CC[C@]21C	9 µg/mL (≈ 29.6 µM)
CC(C)c1ccc2c(c1)CC[C@H]1[C@@](O)(CO)CCC[C@]21C	14 µg/mL (≈ 48.5 µM)
CC(C)c1ccc2c(c1)CC[C@H]1[C@@H](O)CCC[C@]21C	15 µg/mL (≈ 58 µM)
CC(C)c1ccc2c(c1)CC[C@H]1[C@H](O)[C@@H](O)CC[C@]21C	19 µg/mL (≈ 69.2 µM)
Nc1nc2c(ncn2COCCO)c(=O)[nH]1 [ACYCLOVIR]	1.5 µg/mL (≈ 6.66 µM)
CC(C)c1ccc2c(c1)CC[C@H]1[C@](C)(C(=O)O)CCC[C@]21C [DEHYDROABIETIC ACID]	20 µg/mL (≈ 66.6 µM)
COC(=O)[C@]1(C)CCC[C@]2(C)c3ccc(C(C)C)cc3CC[C@@H]12 [METHYL DEHYDROABIETATE]	20 µg/mL (≈ 63.6 µM)
CC(C)c1ccc2c(c1)CC[C@H]1[C@](C)(CO)CCC[C@]21C [POMIFERIN A]	17 µg/mL (≈ 59.3 µM)

System: Vero
Test: Concentration required for 50% inhibition of herpes simplex virus 2 (HSV-2) using standard plaque reduction assay in vero cells
Type: functional, cell-based
Conditions: Chlorocebus sabaeus

Compound	IC50
C[C@]12CC[C@]3(C1)[C@H](CC2=O)C[C@@H](OC(=O)c1ccccc1)[C@H]1[C@](C)(C(=O)O)CCC[C@@]13C [SCOPADULCIC ACID B]	0.2 µg/mL (≈ 0.456 µM)
